Patent US8992444B2, “Devices, systems, and methods for determining isometric and isotonic activity of luminal organs” (DTherapeutics, LLC, priority 2005, dated 2015)

What was measured:
[1] = system: carotid and femoral arteries; assay: isovolumic myograph, vasoactivity of arterial segments; set-up: species or system Wistar rats; details: concentration-dependent contraction, FIG. 2
Experimental: Six Wistar rats weighing 300-350 g were used in the study. The animals were anesthetized with sodium pentobarbital (60 mg/kg, ip). A heating pad was used to maintain the body temperature of the animal during anesthesia. The left carotid and common femoral arteries of the rat were exposed and cannulated for blood pressure measurements. This was done to measure the in vivo difference in blood pressure between carotid and femoral arteries. Several 1 cm segments of right carotid and femoral arteries were excised and immediately stored in 4° C. physiological saline solution (PSS).
The samples were then prepared to be tested in the exemplary isovolumic myograph according to the present disclosure as shown in FIG. 1. To prepare the samples, PSS was first contained in an organ bath with a controlled heating system and warmed to 37° C. […]
Vessel 3 and pressure transducer 5 are isolated from the pressure system when vessel 3 is pressurized and the two stopcocks 6 and 7 are closed to vessel 3. […] The changes of the pressure are recorded. […]
The dosage-dependent vasoconstriction in response to phenylephrine was recorded. The dosage- and endothelium-dependent vasodilatation in response to acetylcholine was also recorded in phenylephrine pre-constriction. The dosage-dependent and endothelium-independent vasodilatation in response to sodium nitroprusside (SNP) was recorded in phenylephrine pre-constriction. […]

[2] = system: aorta, femoral artery, and mesenteric artery; assay: isovolumic myography, dose-dependent vasoconstriction and vasodilatation; set-up: species or system Wistar male rats; details: 10^−5 mole/l; three types of arteries at physiological pressure
Experimental: Animals and tissue preparation. […] Six aorta, six femoral arteries, and six mesenteric arteries were harvested from eighteen rats. The animals were acclimated to the testing facility for approximately one week prior to the start of the study. On the day of termination, each animal was first anesthetized with sodium pentobarbital (80 mg/kg, i.p.) and euthanized by overanesthesia with sodium pentobarbital ([…], i.p.). Either the aorta, common femoral artery, or mesenteric artery were excised quickly and placed in ice-cold physiological saline solution (PSS in mmole/L: 119 NaCl, 4.7 KCl, 25 NaHCO3, 1.17 KH2PO4, 1.17 MgSO4, 1.6 CaCl, 5.5 Dextrose, solution gassed by 95% O2/5% CO2). The artery was carefully cleaned from adjacent tissue with the aid of a stereo-dissection microscope. The branches on the artery were ligated and the artery was allowed to warm up to room temperature (22° C.) slowly in approximately 10-15 min. The artery was transferred to the chamber of isovolumic system and cannulated with connectors and secured with 8-0 suture twice to avoid any leakage. The artery was warmed up to 37° C. slowly (20-25 min) and equilibrated for 40 min at a transmural pressure of 15 mmHg before agonist and antagonist stimulation.
Isovolumic myography. […]

## CNC[C@H](O)c1cccc(O)c1 [phenylephrine]
[1]
  concentration at which the pressure in the vessel reached a maximum: 3 µmol/L
[2]
  increase in intraluminal pressure: 30 to 40 mmHg
